# Experimental data from patent US6992079B2, “Substituted 11-phenyl-dibenzazepine compounds useful for the treatment or prevention of diseases characterized by abnormal cell proliferation” (President Fellows of Harvard College, priority 1997, dated 2006).
# Legend:
# [1] = system: U251; experiment: In-Vitro Testing SRB panel: CNS Cancer; format: cell-based
# [2] = system: SF-539; experiment: In-Vitro Testing SRB panel: CNS Cancer; format: cell-based; settings: SF-539, 48 h
# [3] = system: OVCAR-8; experiment: In-Vitro Testing SRB panel: Ovarian Cancer; format: cell-based; settings: OVCAR-8, 48 h
# [4] = system: 786-0; experiment: In-Vitro Testing SRB panel: Renal Cancer; format: cell-based; settings: 786-0, 48 h
# [5] = system: K-562; experiment: In-Vitro Testing SRB panel: Leukemia; format: cell-based
# [6] = system: PC-3 human prostate carcinoma; experiment: Mouse xenograft tumor growth; format: in vivo
# [7] = system: COLO 205; experiment: In-Vitro Testing SRB panel: Colon Cancer; format: cell-based; settings: COLO 205, 48 h
# [8] = system: KM12; experiment: In-Vitro Testing SRB panel: Colon Cancer; format: cell-based; settings: KM12, 48 h
# [9] = system: Ca^2+ from intracellular pools / capacitative Ca^2+ influx; experiment: Intracellular Ca2+ release and capacitative Ca2+ influx; format: cell-based; settings: in vitro
# [10] = system: T-47D; experiment: In-Vitro Testing SRB panel: Breast Cancer; format: cell-based; settings: 48 h
# [11] = system: OVCAR-3; experiment: In-Vitro Testing SRB panel: Ovarian Cancer
# [12] = system: SW-620; experiment: In-Vitro Testing SRB panel: Colon Cancer; format: cell-based; settings: SW-620, 48 h
# [13] = system: SU.86.86 pancreatic adenocarcinoma; experiment: Mouse xenograft tumor growth; format: in vivo, nude mice; settings: SU.86.86 pancreatic adenocarcinoma mouse xenograft
# [14] = system: U118MG; experiment: SRB antiproliferative assay; format: cell-based; settings: Homo sapiens, U-118-MG
# From the text: (§1) The cells were passaged using Trypsin (Gibco).
# [15] = system: MCF7; experiment: SRB antiproliferative assay; format: cell-based; settings: Homo sapiens
# From the text: as §1
# [16] = system: A549; experiment: SRB antiproliferative assay; format: cell-based; settings: Homo sapiens
# From the text: as §1
# [17] = system: HT29; experiment: SRB antiproliferative assay; format: cell-based; settings: Homo sapiens
# From the text: as §1
# [18] = system: HEPG2; experiment: SRB antiproliferative assay; format: cell-based; settings: Homo sapiens
# From the text: as §1
# [19] = system: HeLa; experiment: SRB antiproliferative assay; format: cell-based; settings: Homo sapiens, HeLa (Cervical), 5% FCS/5 day incubation
# From the text: as §1
# [20] = system: H209 small lung cell carcinoma; experiment: Mouse xenograft tumor growth; format: in vivo, SCID mice
# [21] = system: PC-3 Human Prostate Tumor cells; experiment: XTT growth inhibition assay; format: cell-based; settings: PC-3 cells
# [22] = system: SR; experiment: In-Vitro Testing SRB panel: Leukemia; format: cell-based; settings: 48 h
# [23] = system: UACC-62; experiment: In-Vitro Testing SRB panel: Melanoma; format: cell-based; settings: UACC-62, 48 h
# [24] = Homo sapiens, read-out: LC50 (the source's name)
structure (smiles),measurement,setting,value
"O=C(c1ccc([N+](=O)[O-])cc1)N1Cc2ccccc2C(c2ccccc2Cl)c2ccccc21 (centres unmarked) [Compound 28, N-(4′-Nitrobenzoyl)-11-(2′-chlorophenyl)-5,6-dihydro-11H-dibenz[b,e]azepine]",GI50,"[1]; Homo sapiens, U-251, 48 h",0.476 µM
same,CC50,"[1]; Homo sapiens, U-251, U251, 48 h, read-out: LC50 (the source's name)",> 100 µM
same,TGI,"[1]; U251, 48 h",>1.00E−04 Molar
same,Percent Growth,"[1]; U251, log10 conc −4.0 Molar, 48 h",8%
same,Percent Growth,"[1]; U251, log10 conc −5.0 Molar, 48 h",9%
same,Percent Growth,"[1]; U251, log10 conc −6.0 Molar, 48 h",28%
same,Percent Growth,"[1]; U251, log10 conc −7.0 Molar, 48 h",94%
same,Percent Growth,"[1]; U251, log10 conc −8.0 Molar, 48 h",104%
same,GI50,[2]; Homo sapiens,25.6 µM
same,CC50,[2]; [24],> 100 µM
same,TGI,[2],>1.00E−04 Molar
same,Percent Growth,[2]; log10 conc −4.0 Molar,35%
same,Percent Growth,[2]; log10 conc −5.0 Molar,61%
same,Percent Growth,[2]; log10 conc −6.0 Molar,86%
same,Percent Growth,[2]; log10 conc −7.0 Molar,107%
same,Percent Growth,[2]; log10 conc −8.0 Molar,82%
same,GI50,[3]; Homo sapiens,2.86 µM
same,CC50,[3]; [24],> 100 µM
same,TGI,[3],>1.00E−04 Molar
same,Percent Growth,[3]; log10 conc −4.0 Molar,28%
same,Percent Growth,[3]; log10 conc −5.0 Molar,33%
same,Percent Growth,[3]; log10 conc −6.0 Molar,64%
same,Percent Growth,[3]; log10 conc −7.0 Molar,102%
same,Percent Growth,[3]; log10 conc −8.0 Molar,105%
same,TGI,[4],>1.00E−04 Molar
same,Percent Growth,[4]; log10 conc −4.0 Molar,27%
same,Percent Growth,[4]; log10 conc −5.0 Molar,31%
same,Percent Growth,[4]; log10 conc −6.0 Molar,51%
same,Percent Growth,[4]; log10 conc −7.0 Molar,102%
same,Percent Growth,[4]; log10 conc −8.0 Molar,100%
same,GI50,[4]; Homo sapiens,1.16 µM
same,CC50,[4]; [24],> 100 µM
same,GI50,"[5]; Homo sapiens, K562, 48 h",0.394 µM
same,CC50,"[5]; Homo sapiens, K562, K-562, 48 h, read-out: LC50 (the source's name)",> 100 µM
same,TGI,"[5]; K-562, 48 h",>1.00E−04 Molar
same,Percent Growth,"[5]; K-562, log10 conc −4.0 Molar, 48 h",26%
same,Percent Growth,"[5]; K-562, log10 conc −5.0 Molar, 48 h",25%
same,Percent Growth,"[5]; K-562, log10 conc −6.0 Molar, 48 h",38%
same,Percent Growth,"[5]; K-562, log10 conc −7.0 Molar, 48 h",68%
same,Percent Growth,"[5]; K-562, log10 conc −8.0 Molar, 48 h",82%
same,apparent toxicity,[6]; PC-3 mouse xenograph,no sign of apparent toxicity
same,growth of PC-3 human prostate carcinoma,[6]; mouse xenograph,significant inhibitory effects on the growth
same,TGI,[7],1.41E−05 Molar
same,Percent Growth,[7]; log10 conc −4.0 Molar,−60%
same,Percent Growth,[7]; log10 conc −5.0 Molar,10%
same,Percent Growth,[7]; log10 conc −6.0 Molar,40%
same,Percent Growth,[7]; log10 conc −7.0 Molar,77%
same,Percent Growth,[7]; log10 conc −8.0 Molar,79%
same,GI50,[7]; Homo sapiens,0.845 µM
same,CC50,[7]; [24],> 72.5 µM
same,GI50,[8]; Homo sapiens,0.765 µM
same,CC50,[8]; [24],> 100 µM
same,TGI,[8],>1.00E−04 Molar
same,Percent Growth,[8]; log10 conc −4.0 Molar,15%
same,Percent Growth,[8]; log10 conc −5.0 Molar,26%
same,Percent Growth,[8]; log10 conc −6.0 Molar,45%
same,Percent Growth,[8]; log10 conc −7.0 Molar,84%
same,Percent Growth,[8]; log10 conc −8.0 Molar,94%
same,Ca^2+ release from intracellular pools,[9],releases Ca^2+ from intracellular pools
same,capacitative Ca^2+ influx into the cell,[9],inhibits capacitative Ca^2+ influx
same,GI50,"[10]; Homo sapiens, T47D",1.44 µM
same,CC50,"[10]; Homo sapiens, T47D, T-47D, read-out: LC50 (the source's name)",> 100 µM
same,TGI,[10]; T-47D,>1.00E−04 Molar
same,Percent Growth,"[10]; T-47D, log10 conc −4.0 Molar",26%
same,Percent Growth,"[10]; T-47D, log10 conc −5.0 Molar",21%
same,Percent Growth,"[10]; T-47D, log10 conc −6.0 Molar",55%
same,Percent Growth,"[10]; T-47D, log10 conc −7.0 Molar",90%
same,Percent Growth,"[10]; T-47D, log10 conc −8.0 Molar",95%
same,GI50,"[11]; Homo sapiens, OVCAR-3, 48 h",5.25 µM
same,CC50,"[11]; Homo sapiens, OVCAR-3, 48 h, read-out: LC50",> 100 µM
same,TGI,"[11]; OVCAR-3, 48 h",>1.00E−04 Molar
same,Percent Growth,"[11]; OVCAR-3, log10 conc −4.0 Molar, 48 h",31%
same,Percent Growth,"[11]; OVCAR-3, log10 conc −5.0 Molar, 48 h",44%
same,Percent Growth,"[11]; OVCAR-3, log10 conc −6.0 Molar, 48 h",64%
same,Percent Growth,"[11]; OVCAR-3, log10 conc −7.0 Molar, 48 h",95%
same,Percent Growth,"[11]; OVCAR-3, log10 conc −8.0 Molar, 48 h",89%
same,GI50,[12]; Homo sapiens,7.13 µM
same,CC50,[12]; [24],> 100 µM
same,TGI,[12],>1.00E−04 Molar
same,Percent Growth,[12]; log10 conc −4.0 Molar,42%
same,Percent Growth,[12]; log10 conc −5.0 Molar,47%
same,Percent Growth,[12]; log10 conc −6.0 Molar,65%
same,Percent Growth,[12]; log10 conc −7.0 Molar,94%
same,Percent Growth,[12]; log10 conc −8.0 Molar,112%
same,tumor growth,[13],significantly inhibited tumor growth
same,IC50,"[14]; U118MG (CNS), 5% FCS/5 day incubation",0.5 µM
same,IC50,"[14]; U118MG, 5% FCS/3 days",1.3 µM
same,IC50,"[15]; MCF7, MCF7 (Breast), 5% FCS/5 day incubation",0.6 µM
same,IC50,"[15]; MCF7, MCF7, 5% FCS/3 days",2.1 µM
same,IC50,"[16]; A549, A549 (Lung), 5% FCS/5 day incubation",0.8 µM
same,IC50,"[16]; A549, A549, 5% FCS/3 days",1.8 µM
same,IC50,"[17]; HT-29, HT29 (Colon), 5% FCS/5 day incubation",0.3 µM
same,IC50,"[17]; HT-29, HT29, 5% FCS/3 days",< 1.25 µM
same,IC50,"[18]; HepG2, HEPG2 (Hepatocel), 5% FCS/5 day incubation",0.3 µM
same,IC50,"[18]; HepG2, HEPG2, 5% FCS/3 days",< 1.25 µM
same,IC50,[19],0.3 µM
same,tumor growth,[20],significantly inhibited tumor growth
same,PC-3 prostate cancer cell growth (XTT),[21],inhibits PC-3 prostate cancer cell growth
same,TGI,[22],>1.00E−04 Molar
same,GI50,[22]; Homo sapiens,0.643 µM
same,CC50,[22]; [24],> 100 µM
same,Percent Growth,[22]; log10 conc −4.0 Molar,21%
same,Percent Growth,[22]; log10 conc −5.0 Molar,30%
same,Percent Growth,[22]; log10 conc −6.0 Molar,42%
same,Percent Growth,[22]; log10 conc −7.0 Molar,85%
same,Percent Growth,[22]; log10 conc −8.0 Molar,76%
same,GI50,[23]; Homo sapiens,0.363 µM
same,CC50,[23]; [24],> 100 µM
same,Percent Growth,[23]; log10 conc −4.0 Molar,0%
same,Percent Growth,[23]; log10 conc −5.0 Molar,22%
same,Percent Growth,[23]; log10 conc −6.0 Molar,45%
same,Percent Growth,[23]; log10 conc −7.0 Molar,57%
same,Percent Growth,[23]; log10 conc −8.0 Molar,82%
